Target: T1, Endoribonuclease toxin MazF (Escherichia coli (strain K12), UniProt P0AE70)
T1 sequence (P0AE70 whole entry): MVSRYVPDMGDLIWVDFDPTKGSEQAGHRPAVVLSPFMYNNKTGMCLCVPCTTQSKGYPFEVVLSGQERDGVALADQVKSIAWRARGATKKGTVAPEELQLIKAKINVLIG
Test: MazEF toxin-antitoxin RNase activation – biochemical, fluorescence, single-stranded RNA substrate, SAR follow-up (AID 588603)

How did the EC50 turn out when `N#Cc1ccc(-n2c(O)c3[nH][nH]c(C(=O)c4ccc5ccccc5n4)c-3c2=O)cc1` [4-[(3aS,6aS)-4,6-dioxo-3-[oxo(2-quinolinyl)methyl]-3a,6a-dihydro-1H-pyrrolo[3,4-c]pyrazol-5-yl]benzonitrile] was run?
Its EC50 is 7.74 µM.

With `C=CCOc1cccc(C2C(C(=O)c3ccc(C)o3)C(=O)C(=O)N2c2nccs2)c1` (stereo not drawn) [3-(5-methylfuran-2-yl)carbonyl-4-oxidanyl-2-(3-prop-2-enoxyphenyl)-1-(1,3-thiazol-2-yl)-2H-pyrrol-5-one] as the molecule, how does the EC50 read?
Its EC50 is 22.3 µM.

`O=C(c1ccc2ccccc2n1)c1[nH][nH]c2c(O)n(-c3cccc(F)c3)c(=O)c1-2` [(3aS,6aS)-5-(3-fluorophenyl)-3-[oxo(2-quinolinyl)methyl]-3a,6a-dihydro-1H-pyrrolo[3,4-c]pyrazole-4,6-dione] was tested. Which EC50 did it give?
Its EC50 is 24.4 µM.

From BindingDB's records for doi:10.7270/Q2D50KGC (Burnham Center For Chemical Genomics, 2011)
